Data: ChEMBL document CHEMBL1144818, “Antifouling activity of a dibrominated cyclopeptide from the marine sponge Geodia barretti” (J Nat Prod, 2008)
Calls of active or inactive are those of the source. The rule behind the calls is not given here.

Columns and labels:
Amphibalanus improvisus [1] = experiment: Reversal of antifouling activity in Balanus improvisus assessed as inhibition of cyprid larvae settlement at 10 uM after 48 hrs measured after transferring to fresh sea water; format: functional, organism-based
Amphibalanus improvisus [2] = experiment: Antifouling activity in Balanus improvisus assessed as inhibition of cyprid larvae settlement; format: functional, organism-based
[3] = biological target: 5-hydroxytryptamine receptor 2A (Homo sapiens) (UniProt P28223); experiment: Binding affinity to human 5HT2A receptor expressed in HEK293 cells; format: cell-based
Sequence of 5-hydroxytryptamine receptor 2A (Homo sapiens) (P28223 whole entry): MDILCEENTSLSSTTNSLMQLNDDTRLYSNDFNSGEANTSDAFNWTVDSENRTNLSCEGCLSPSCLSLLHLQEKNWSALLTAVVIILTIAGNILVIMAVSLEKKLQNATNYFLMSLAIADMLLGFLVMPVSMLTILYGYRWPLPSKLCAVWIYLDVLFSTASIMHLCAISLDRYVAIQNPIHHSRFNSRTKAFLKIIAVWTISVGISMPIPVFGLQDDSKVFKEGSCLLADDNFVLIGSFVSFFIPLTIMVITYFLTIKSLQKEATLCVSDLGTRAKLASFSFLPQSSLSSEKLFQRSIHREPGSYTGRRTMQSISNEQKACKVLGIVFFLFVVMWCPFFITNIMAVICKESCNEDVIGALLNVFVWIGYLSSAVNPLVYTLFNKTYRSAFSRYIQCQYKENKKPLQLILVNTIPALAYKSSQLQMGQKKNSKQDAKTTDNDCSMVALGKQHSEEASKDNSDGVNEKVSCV

[4] = biological target: T1, 5-hydroxytryptamine receptor 2C (Homo sapiens) (UniProt P28335); experiment: Binding affinity to human 5HT2C receptor expressed in HEK293 cells; format: cell-based
T1 sequence (whole entry): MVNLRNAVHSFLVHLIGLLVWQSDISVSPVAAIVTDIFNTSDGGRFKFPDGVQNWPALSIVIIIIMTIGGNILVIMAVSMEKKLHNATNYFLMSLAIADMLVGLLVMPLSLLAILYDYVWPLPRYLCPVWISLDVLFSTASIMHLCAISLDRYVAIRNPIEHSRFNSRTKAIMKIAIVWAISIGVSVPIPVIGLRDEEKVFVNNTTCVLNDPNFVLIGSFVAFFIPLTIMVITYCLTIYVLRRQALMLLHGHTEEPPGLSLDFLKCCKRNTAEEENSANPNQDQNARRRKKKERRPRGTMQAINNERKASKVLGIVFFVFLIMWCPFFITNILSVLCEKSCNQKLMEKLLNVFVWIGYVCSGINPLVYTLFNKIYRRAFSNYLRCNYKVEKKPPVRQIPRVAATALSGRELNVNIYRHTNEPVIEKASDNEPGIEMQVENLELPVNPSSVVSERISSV

[5] = biological target: 5-hydroxytryptamine receptor 4 (Homo sapiens) (UniProt Q13639); experiment: Binding affinity to human 5HT4 receptor expressed in HEK293 cells; format: cell-based
Sequence of 5-hydroxytryptamine receptor 4 (Homo sapiens) (Q13639 whole entry): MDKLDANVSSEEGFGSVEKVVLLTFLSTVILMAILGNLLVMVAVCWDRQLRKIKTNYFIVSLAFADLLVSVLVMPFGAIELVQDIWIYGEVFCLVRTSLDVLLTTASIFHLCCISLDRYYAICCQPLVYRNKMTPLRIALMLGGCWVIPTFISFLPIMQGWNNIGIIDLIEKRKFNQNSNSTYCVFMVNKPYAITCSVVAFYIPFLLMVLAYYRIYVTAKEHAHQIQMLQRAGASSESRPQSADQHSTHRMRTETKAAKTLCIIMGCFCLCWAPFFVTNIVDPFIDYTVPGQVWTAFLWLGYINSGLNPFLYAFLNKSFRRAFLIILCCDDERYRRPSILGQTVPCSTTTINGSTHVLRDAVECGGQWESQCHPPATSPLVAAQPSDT

[6] = biological target: 5-hydroxytryptamine receptor 4 (Homo sapiens) (UniProt Q13639); experiment: Binding affinity to human 5HT4 receptor expressed in HEK293 cells below 10 uM; format: cell-based

| Structure (SMILES) | Activity (Amphibalanus improvisus [1]) | EC50 (Amphibalanus improvisus [2]) [nM] | Activity [3] | Activity [4] | Activity [5] | Activity [6] |
| --- | --- | --- | --- | --- | --- | --- |
| N=C(N)NCCC[C@@H]1NC(=O)C(C(O)(c2c[nH]c3cc(Br)ccc23)c2c(Br)ccc3c(=O)o[nH]c23)NC1=O (stereo partly specified) | Active | 15 | inactive | inactive | inactive |  |
| N=C(N)NCCC[C@@H]1NC(=O)C(Cc2c[nH]c3cc(Br)ccc23)NC1=O (stereo partly specified) |  |  |  |  |  | Active |
